One may read the pIC50 as the negative decadic logarithm of the IC50, by convention in mol/L.

The values that follow come from patent US5220018A, “Cholecystokinin antagonists” (Merck & Co., Inc., priority 1992, dated 1993).

The subject of one assay is CCK receptor. As to conditions: literature; cited from earlier work.
Another assay has as its system CCK-B receptors. As to conditions: literature, Bock et al. 1989; cited from earlier work.
In a further assay the target is T1, Gastrin Receptor (Cavia porcellus, UniProt H0VZC5).
T1 construct: from tissue; host or cells: guinea pig gastric mucosal glands (collagenase-dispersed)
T1 sequence (H0VZC5 1-426): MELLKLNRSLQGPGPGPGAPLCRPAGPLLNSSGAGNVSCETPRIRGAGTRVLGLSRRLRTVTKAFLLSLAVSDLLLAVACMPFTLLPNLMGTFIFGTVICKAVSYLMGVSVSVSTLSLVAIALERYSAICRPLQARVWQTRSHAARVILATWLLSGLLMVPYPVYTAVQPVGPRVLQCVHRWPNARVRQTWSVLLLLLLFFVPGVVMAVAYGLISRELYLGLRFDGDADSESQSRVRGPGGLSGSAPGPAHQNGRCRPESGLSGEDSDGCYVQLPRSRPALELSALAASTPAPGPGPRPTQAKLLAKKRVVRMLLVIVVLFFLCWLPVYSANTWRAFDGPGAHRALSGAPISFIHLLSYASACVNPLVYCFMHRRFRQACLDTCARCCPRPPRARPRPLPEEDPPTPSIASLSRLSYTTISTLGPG
Description: Gastrin Receptor Binding in Guinea Pig Gastric Glands. Set-up: species or system guinea pigs. As to the method:
Gastrin antagonist activity of compounds of Formula I is determined using the following assay.
A. Gastrin Receptor Binding in Guinea Pig Gastric Glands
Preparation of guinea pig gastric mucosal glands
Guinea pig gastric mucosal glands were prepared by the procedure of Chang et al., Science 230, 177-179 (1985) with slight modification. Gastric mucosa from guinea pigs (300-500 g body weight, male Hartley) were isolated by scraping with a glass slide after washing stomachs in ice-cold, aerated buffer consisting of the following: 130 mM NaCl, 12 mM NaHCO3, 3 mM NaH2 PO4, 3 mM Na2 HPO4, 3 mM K2 HPO4, 2 mM MgSO4, 1 mM CaCl2, 5 mM glucose and 4 mM L-glutamine, 50 mM HEPES, 0.25 mg/ml bacitracin, 0.10 mg/ml soya bean trypsin inhibitor, 0.1 mg/ml bovine serum albumin, at pH 6.5, and then incubated in a 37° C. shaking water bath for 40 minutes in buffer containing 1 mg/ml collagenase and bubbled with 95% O2 and 5% CO2. The tissues were passed twice through a 5 ml syringe to liberate the gastric glands, and then filtered through Nitex #202 gauge nylon mesh. The filtered glands were centrifuged at 272 g for 5 minutes and washed twice by resuspension in 25 ml buffer and centrifugation.
The washed guinea pig gastric glands prepared as above were resuspended in 25 ml of standard buffer. […] The radioactivity on the filters was measured using a LKB gamma counter.

The target in the next assay is T2, CCK Receptor (Brain) (Cavia porcellus, UniProt H0VZC5).
T2 construct: the cortex was removed and homogenized in 25 mL ice-cold 0.32M sucrose; from tissue; host or cells: guinea pig cerebral cortex, P2 membrane pellet
T2 sequence (H0VZC5 1-426): T1 sequence (H0VZC5 1-426)
Description: CCK Receptor Binding (Brain), inhibition of 125I-CCK-8 binding. More on the design: species or system Male Hartley guinea pigs. The procedure:
2. CCK Receptor Binding (Brain)
CCK-8 sulphated was radiolabelled and the binding was performed according to the description for the pancreas method with minor modifications.
Male Hartley guinea pigs (300-500 g) were sacrificed by decapitation and the cortex was removed and homogenized in 25 mL ice-cold 0.32M sucrose. The homogenates were centrifuged at 1000 g for 10 minutes and the resulting supernatant was recentrifuged at 20,000 g for 20 minutes. […] All assays were run in duplicate. The reaction mixtures were incubated at 25° C. for 2 hours and then the reaction was terminated on Whatman GF/C filters by rapid filtration (Brandell 24 well cell Harvester) with 3×5 ml washes of cold 100 mM NaCl. The radioactivity on the filters was then counted with a LKB gamma counter.
(§1) Drug displacement studies were performed with at least 10 concentrations of compounds of formula 1 and the IC50 values were determined by regression analysis.

The target in the next assay is T3, CCK Receptor (Pancreas) (Rattus norvegicus, UniProt P30551).
T3 construct: The whole pancreas was dissected free of fat tissue and was homogenized; from tissue; host or cells: rat whole pancreas, homogenate membranes
T3 sequence (P30551 1-444): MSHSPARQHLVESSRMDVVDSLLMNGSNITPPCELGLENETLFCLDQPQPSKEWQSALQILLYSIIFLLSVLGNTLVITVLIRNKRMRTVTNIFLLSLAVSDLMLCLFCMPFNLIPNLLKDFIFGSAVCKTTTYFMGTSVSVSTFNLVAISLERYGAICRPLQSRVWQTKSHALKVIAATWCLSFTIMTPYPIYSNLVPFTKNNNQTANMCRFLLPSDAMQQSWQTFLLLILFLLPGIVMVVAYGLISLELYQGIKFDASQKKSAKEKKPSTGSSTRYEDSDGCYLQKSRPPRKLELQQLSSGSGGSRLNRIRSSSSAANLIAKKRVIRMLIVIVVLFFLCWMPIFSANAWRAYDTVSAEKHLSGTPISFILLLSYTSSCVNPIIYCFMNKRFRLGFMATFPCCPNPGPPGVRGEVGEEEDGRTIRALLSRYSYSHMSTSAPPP
Kind of assay: biochemical. It is filed as binding, Male Sprague-Dawley rats. As to conditions: rat pancreas membranes, 125I-CCK-8 50 pM, 25° C., 2 hours; read-out: IC50, 125I-CCK Pancreas. The procedure: 1. CCK Receptor Binding (Pancreas)
CCK-8 sulphated was radiolabelled with ^125 I-Bolton Hunter reagent (2000 Ci/mmole). Receptor binding was performed according to Chang and Lotti (Proc. Natl. Acad. Sci. 83, 4923-4926, 1986) with minor modifications.
Male Sprague-Dawley rats (150-200 g) were sacrificed by decapitation. The whole pancreas was dissected free of fat tissue and was homogenized in 25 volumes of ice-cold 10 mM Hepes buffer with 0.1% soya bean trypsin inhibitor (pH 7.4 at 25° C.) with a Kinematica Polytron. The homogenates were centrifuged at 47,800 g for 10 min. Pellets were resuspended in 10 volumes of binding assay buffer (20 mM Hepes, 1 mM EGTA, 5 mM MgCl2, 150 mM NaCl, bacitracin 0.25 mg/ml, soya bean trypsin inhibitor 0.1 mg/ml, and bovine serum albumin 2 mg/ml, pH 6.5 at 25° C.) using a teflon homogenizer, 15 strokes at 500 rpm. The homogenate was further diluted in binding assay buffer to give a final concentration of 0.5 mg original wet weight/1 ml buffer. […] All assays were run in duplicate. The reaction mixtures were incubated at 25° C. for 2 hours and the reaction terminated by rapid filtration (Brandell 24 well cell harvester) over Whatman GF/C filters, washing 3×4 mls with ice-cold 100 mM NaCl. The radioactivity on the filters was counted with a LKB gamma counter.
as §1

The next assay deals with gastrin. As to conditions: in vitro, literature; cited from earlier work.
Setting [1] is: guinea pig cortex membranes, 125I-CCK-8 50 pM, 25° C., 2 hours, read-out: IC50, 125I-CCK Brain.

pIC50: −log10 of the molar value. Where two headings read alike, the source gives them in different places. Non-standard residues stand in square brackets, D forms with d. Residues, ends and D or L forms follow the SMILES beside them. *: point of attachment. sY = N[C@@H](Cc1ccc(OS(=O)(=O)O)cc1)C(=O)O; Cbz = O=C(OCc1ccccc1)*

As for `CSCC[C@H](NC(=O)[C@H](Cc1ccc(OS(=O)(=O)O)cc1)NC(=O)OCc1ccccc1)C(=O)NCC(=O)N[C@@H](Cc1c[nH]c2ccccc12)C(=O)N[C@@H](CCSC)C(=O)N[C@@H](CC(=O)O)C(N)=O` [Cbz-Tyr(SO3 H)-Met-Gly-Trp-Met-Asp-NH2] (Cbz-[sY]MGWMD-NH2), in the assay with CCK receptor, the “CCK receptor activity in words” value is “partial agonist”.
Regarding `CCCC(=O)Nc1nc2c(ncn2[C@@H]2O[C@@H]3COP(=O)(O)O[C@H]3[C@H]2OC(=O)CCC)c(=O)[nH]1` [dibutyryl cyclic GMP], in the assay with CCK receptor, the “CCK receptor activity in words” value was “the most potent”.
`Cc1cccc(NC(=O)N[C@@H]2N=C(c3ccccc3)c3ccccc3N(C)C2=O)c1` [(R)-N-(2,3-dihydro-1-methyl-2-oxo-5-phenyl-1H-1,4-benzodiazepin-3-yl)-N^1-(3-methylphenyl) urea]: in the assay with CCK-B receptors, the “CCK-B receptor antagonism in words” value was “potent and selective antagonist of CCK-B receptors”.
With `CC(C)CN1C(=O)[C@H](NC(=O)Nc2cccc(-c3nnn[nH]3)c2)N=C(c2ccccc2)c2ccccc21` [Example 2, N-{1,3-Dihydro-1-[2-methyl]propyl-2-oxo-5-phenyl-1H-1,4-benzodiazepin-3-yl}-N'-{[3-(1H-tetrazol-5-yl)phenyl]urea}], the pIC50 on Gastrin Receptor (guinea pig gastric glands, method: 125I-gastrin 0.1 nM, 25° C., 30 minutes, read-out: IC50, 125I-CCK Gastric Glands) is 9.62; on CCK Receptor (Brain) (setting [1]), 10.00; on CCK Receptor (Pancreas), 5.85.
With `CCCN(CCC)C(=O)C(CCC(=O)O)NC(=O)c1ccccc1` (centres unmarked) [proglumide], the “gastrin antagonism in words” value in the assay with gastrin is listed as “very weak in vitro antagonists”.
As for `CN1C(=O)[C@H](NC(=O)Nc2cccc(C3=NOS(=O)N3)c2)N=C(c2ccccc2)c2ccccc21` (some centres unmarked) [Example 36, N-{1,3-Dihydro-1-methyl-2-oxo-5-phenyl-1H-1,4-benzodiazepin-3-yl}-N'-{[3-(1,2,4-oxadiathiazol-5-one)phenyl]urea}], the pIC50 on CCK Receptor (Brain) (setting [1]) was 7.71; at CCK Receptor (Pancreas), 5.82.
Consider `CN1C(=O)[C@H](NC(=O)Nc2cccc(-c3nnn[nH]3)c2)N=C(c2ccccc2)c2ccccc21` [Example 1, N-{1,3-Dihydro-1-methyl-2-oxo-5-phenyl-1H-1,4-benzodiazepin-3-yl}-N'-{[3-(1H-tetrazol-5-yl)phenyl]urea}], for which the pIC50 at Gastrin Receptor is 9.15; at CCK Receptor (Brain), 9.00; on CCK Receptor (Pancreas), 6.40.
With `CN1C(=O)[C@H](NC(=O)Nc2cccc(Cc3nnn[nH]3)c2)N=C(c2ccccc2)c2ccccc21` [Example 17, N-{1,3-Dihydro-1-methyl-2-oxo-5-phenyl-1H-1,4-benzodiazepin-3-yl}-N'-{[3-((1H-tetrazol-5-yl)methyl)phenyl]urea}], the figures for the pIC50 at CCK Receptor (Brain) (setting [1]) and on CCK Receptor (Pancreas) were 8.32 and 5.74, respectively.
Take `CN1C(=O)[C@H](NC(=O)Nc2cccc(C#N)c2)N=C(c2ccccc2)c2ccccc21` [Example 7, N-{1,3-Dihydro-1-methyl-2-oxo-5-phenyl-1H-1,4-benzodiazepin-3-yl}-N'-{[3-(cyano)phenyl]urea}]: the results for the pIC50 on CCK Receptor (Brain) (setting [1]) and at CCK Receptor (Pancreas) were 7.57 and 5.51, respectively.
Take `CN1C(=O)[C@H](NC(=O)Nc2cccc(-c3n[nH]c(=O)o3)c2)N=C(c2ccccc2)c2ccccc21` [Example 37]: the pIC50 was 8.44 at CCK Receptor (Brain) (setting [1]) and 5.61 on CCK Receptor (Pancreas).
Consider `COc1ccc(NC(=O)N[C@@H]2N=C(c3ccccc3)c3ccccc3N(C)C2=O)cn1` [Example 6, N-{1,3-Dihydro-1-methyl-2-oxo-5-phenyl-1H-1,4-benzodiazepin-3-yl}-N'-{[5-(2-methoxy)pyridyl]urea}], for which the pIC50 on CCK Receptor (Brain) (setting [1]) is 7.32; at CCK Receptor (Pancreas), 5.70.
